Read-outs that look alike come from different tables or passages of the source.

Type in all cases: cell-based
In one assay the test system is RET (LC2/ad-CDC6). The experiment in a line: Cancer cell proliferation inhibition, MTS assay, 72 hours. The following applies: 72 h. The protocol:
(§1) MTS assay was performed to evaluate the cancer cell proliferation inhibition (cancer cell apoptosis) effect of the compounds of examples of the present invention. Particularly, the assay was performed using the cancer cell lines GIST-T1, GIST-T1/816, GIST-430, GIST-430/654, GIST-R1, GIST-R3, M-NFS-60, RetParental (Ba/F3), Retwt (Ba/F3), RetV804M (Ba/F3), RET (LC2/ad-CDC6), FYN (MCP-1), FYN (FN), MDA-MB-231, Huh7, K562, T315I(Ba/F3), SK-MEL-28 and A375. Cell culture was performed using a medium suitable for each cell line.
(§2) Other cell lines were seeded in a 96-well plate containing the corresponding medium appropriate for each cell line at the density of 3,000 cells/well, followed by culture in a 5% CO2 and 37° C. incubator for 24 hours. The compounds of examples of the present invention were added to each well at the concentration of from the highest volume of 50 μM to every step of serial dilution. The solvent control, dimethylsulfoxide (DMSO), was treated at the same concentration of 0.05% (v/v) as the volume used for the treatment of the compounds above. Each cell line was cultured for 72 hours. To investigate the cell viability, the MTS and PMS (phenazine methosulfate) mixture provided in CellTiter 96® AQuous Non-Radioactive Cell Proliferation Assay Kit (Promega) was added to each cell culture medium, followed by additional culture at 37° C. for 2 hours. Then, OD450 was measured. Based on OD of the solvent control cells not treated with any compounds of the present invention, the cell proliferation inhibition rate was calculated according to the treatment concentration of each compound. At this time, the concentration of each compound that was able to inhibit cancer cell proliferation up to 50% was determined as IC50 (uM). IC50 of each compound was determined with three data sets and calculated by using Prism softwater (version 6.01, GraphPad).
(In general: Tetrazolium dyes change colour on reduction, which living cells bring about.)

Another assay concerns A375. The assay can be described thus: Cancer cell proliferation inhibition, CCK-8, 72 hours. On the procedure:
as §1
(§3) In the meantime, MDA-MB-231 and A375 cells were seeded in a 96well plate at the density of 2×10^3/100 μl/well, which stood for a day for attachment. The culture fluid was eliminated. After removing the culture medium, the medium was replaced with the culture medium containing the compounds of the present invention at 3-times serially diluted 9 concentrations (0.0015-10 μM) and the DMSO control, followed by incubation in a 37° C. CO2 incubator for 72 hours. On the other hand, K-562 and Ba/F3-T315I cells were seeded in a 96-well plate at the density of 1×10^4/90 μl/well. The plate containing K-562 cells was added with the culture medium containing the compounds of the present invention at 3-times serially diluted 9 concentrations (0.015-100 μM) and the DMSO control (10 μl/well). The plate containing Ba/F3-T315I cells was added with the culture medium containing the compounds of the present invention at 5-times serially diluted 9 concentrations (0.000256-100 μM) and the DMSO control (10 μl/well). The final concentration was made 0-10 μM and then the cells were cultured in a 37° C. CO2 incubator for 72 hours.
(§4) A375, K-562 and Ba/F3-T315I cells were added with CCK-8 solution at the concentration of 10 μl/well, followed by orbital shaking for 30 seconds. Then, the cells were cultured in a 37° C. CO2 incubator for 2 hours. OD450 was measured by using a microplate reader. The OD value of the well treated with the culture medium and CCK-8 solution alone was subtracted from the OD value measured above, followed by calculation of IC50 using GraphPad Prism 6 software.

In the next assay the test system is K562. Described as above. The protocol: as §1, §3, §4
Another assay concerns the target T1, T315I (Ba/F3) (Homo sapiens, UniProt P00519, T315I, cells depend on it).
T1 construct: fused on or other part: P11274 (Breakpoint cluster region protein)
The description is as above. The following applies: read-out: T315I (Ba/F3) IC50. The protocol:
as §1, §3, §4

Another assay relates to MDA-MB-231. The experiment in a line: Real time cell proliferation, IncuCyte ZOOM, 72 hours.
The test system of a further assay is Huh7. The experiment in a line: Cancer cell proliferation inhibition, MTS assay, 72 hours. The following applies: Homo sapiens, Huh-7. The protocol:
as §1, §2

What is called IC50 is the concentration at which inhibition is half-maximal. The low end stands for greater potency, the high end for weaker potency. Regarding `CCn1cc(Nc2cccn3c(C#Cc4cc(C(=O)Nc5ccc(CN6CC[C@@H](N(C)C)C6)c(C(F)(F)F)c5)ccc4C)cnc23)cn1` [Example 53, (R)—N-(4-((3-(dimethylamino)pyrrolidin-1-yl)methyl)-3-(trifluoromethyl)phenyl)-3-((8-((1-ethyl-1H-pyrazol-4-yl)amino)imidazo[1,2-a]pyridin-3-yl)ethynyl)-4-methylbenzamide], the IC50 is above 10 nM in the assay with RET (LC2/ad-CDC6); 285 nM in the assay with A375 (Homo sapiens, A-375, 72 h); below 1 nM in the assay on K562 (Homo sapiens, K562, 72 h); 324 nM in the assay on MDA-MB-231 (Homo sapiens, MDA-MB-231, 72 h). Besides, the GI50 at T315I (Ba/F3) came out at 2.67 nM.

In the case of `COCCCn1cc(Nc2cccn3c(C#Cc4cc(C(=O)Nc5ccc(CN6CCN(C)[C@@H](C)C6)c(C(F)(F)F)c5)ccc4C)cnc23)cn1` [Example 46, (S)—N-(4-((3,4-dimethylpiperazin-1-yl)methyl)-3-(trifluoromethyl)phenyl)-3-((8-((1-(3-methoxypropyl)-1H-pyrazol-4-yl)amino)imidazo[1,2-a]pyridin-3-yl)ethynyl)-4-methylbenzamide], the IC50 was above 10 nM in the assay with RET (LC2/ad-CDC6); 250 nM in the assay with A375 (Homo sapiens, A-375, 72 h); 7 nM in the assay on K562 (Homo sapiens, K562, 72 h); 273 nM with MDA-MB-231 (Homo sapiens, MDA-MB-231, 72 h). The GI50 at T315I (Ba/F3) came out at 6.27 nM.

`Cc1cc(Nc2cccn3c(C#Cc4cc(C(=O)Nc5ccc(CN6CCC(N(C)C)C6)c(C(F)(F)F)c5)ccc4C)cnc23)no1` (stereo not drawn) [Example 45, N-(4-((3-(dimethylamino)pyrrolidin-1-yl)methyl)-3-(trifluoromethyl)phenyl)-4-methyl-3-((8-((5-methylisoxazol-3-yl)amino)imidazo[1,2-a]pyridin-3-yl)ethynyl)benzamide]: the IC50 was above 10 nM in the assay on RET (LC2/ad-CDC6); 720 nM in the assay with A375 (Homo sapiens, A-375, 72 h); 2 nM with K562 (Homo sapiens, K562, 72 h); 816 nM with MDA-MB-231 (Homo sapiens, MDA-MB-231, 72 h). In addition, the GI50 at T315I (Ba/F3) is 145 nM.

Consider `COCCn1cc(Nc2cccn3c(C#Cc4cc(C(=O)Nc5cc(-n6cnc(C)c6)cc(C(F)(F)F)c5)ccc4C)cnc23)cn1` [Example 71], for which the IC50 in the assay on Huh7 was determined as 955 nM; in the assay on K562 (Homo sapiens, K562, 72 h), 6 nM; in the assay with MDA-MB-231 (Homo sapiens, MDA-MB-231, 72 h), 4730 nM. The GI50 on T315I (Ba/F3) worked out at 25.2 nM.

As to `Cc1ccc(C(=O)Nc2ccc(CN3CCN(C)[C@H](C)C3)c(C(F)(F)F)c2)cc1C#Cc1cnc2c(Nc3cnn(C(C)C)c3)cccn12` [Example 81, (R)—N-(4-((3,4-dimethylpiperazin-1-yl)methyl)-3-(trifluoromethyl)phenyl)-3-((8-((1-isopropyl-1H-pyrazol-4-yl)amino)imidazo[1,2-a]pyridin-3-yl)ethynyl)-4-methylbenzamide], the IC50 in the assay with A375 is 1960 nM; in the assay on K562, 43 nM; with MDA-MB-231 it was 1730 nM. For the same compound, the GI50 at T315I (Ba/F3) was found to be 190 nM.

For the compound `Cc1ccc(NC(=O)C2(C(=O)Nc3ccc(F)cc3)CC2)cc1C#Cc1cnc2c(Nc3cnn(C)c3)cccn12` [Example 79], the IC50 in the assay on Huh7 is 5650 nM; in the assay with A375 (Homo sapiens, A-375, 72 h) it was above 10000 nM; in the assay on K562 (Homo sapiens, K562, 72 h) it was 763 nM; with MDA-MB-231 (Homo sapiens, MDA-MB-231, 72 h), above 10000 nM. The GI50 at T315I (Ba/F3) was found to be 5410 nM.

Regarding `Cc1ccc(C(=O)Nc2ccc(CN3CCN(C)[C@@H](C)C3)c(C(F)(F)F)c2)cc1C#Cc1cnc2c(Nc3cnn(C(C)C)c3)cccn12` [Example 48, (S)—N-(4-((3,4-dimethylpiperazin-1-yl)methyl)-3-(trifluoromethyl)phenyl)-3-((8-((1-isopropyl-1H-pyrazol-4-yl)amino)imidazo[1,2-a]pyridin-3-yl)ethynyl)-4-methylbenzamide], the IC50 in the assay on RET (LC2/ad-CDC6) is above 10 nM; in the assay with A375 (Homo sapiens, A-375, 72 h), 406 nM; with K562 (Homo sapiens, K562, 72 h), below 1 nM; in the assay on MDA-MB-231 (Homo sapiens, MDA-MB-231, 72 h), 382 nM. In addition, the GI50 at T315I (Ba/F3) was determined as 86.3 nM.

Take `Cc1ccc(C(=O)Nc2ccc3ncsc3c2)cc1C#Cc1cnc2c(Nc3cnn(C)c3)cccn12` [Example 37, N-(benzo[d]thiazol-6-yl)-4-methyl-3-((8-((1-methyl-1H-pyrazol-4-yl)amino)imidazo[1,2-a]pyridin-3-yl)ethynyl)benzamide]: the IC50 with Huh7 is 1800 nM; with A375 (Homo sapiens, A-375, 72 h), above 10000 nM; in the assay with K562 (Homo sapiens, K562, 72 h) it was 2 nM; with MDA-MB-231 (Homo sapiens, MDA-MB-231, 72 h), above 10000 nM. Besides, the GI50 on T315I (Ba/F3) amounted to 663 nM.

For the compound `CCn1cc(Nc2cccn3c(C#Cc4cc(C(=O)Nc5ccc(N6CCOCC6)c(F)c5)ccc4C)cnc23)cn1` [Example 56, 3-((8-((1-ethyl-1H-pyrazol-4-yl)amino)imidazo[1,2-a]pyridin-3-yl)ethynyl)-N-(3-fluoro-4-morpholinophenyl)-4-methylbenzamide], the IC50 was above 10 nM in the assay on RET (LC2/ad-CDC6); above 10000 nM in the assay on A375 (Homo sapiens, A-375, 72 h); below 1 nM with K562 (Homo sapiens, K562, 72 h); above 10000 nM with MDA-MB-231 (Homo sapiens, MDA-MB-231, 72 h). For the same compound, the GI50 at T315I (Ba/F3) was 1140 nM.

Regarding `CCN1CCN(Cc2ccc(NC(=O)c3ccc(C)c(C#Cc4cnc5c(Nc6cnn(CCN(C)C)c6)cccn45)c3)cc2C(F)(F)F)CC1` [Example 73], the IC50 was below 1.5 nM with K562 (Homo sapiens, K562, 72 h) and 916 nM in the assay with MDA-MB-231 (Homo sapiens, MDA-MB-231, 72 h). Further, the GI50 on T315I (Ba/F3) was determined as 421 nM.

For the compound `Cc1ccc(C(=O)Nc2ccc(CN3CCCN(C)CC3)c(C(F)(F)F)c2)cc1C#Cc1cnc2c(Nc3cnn(C(C)C)c3)cccn12` [Example 38, 3-((8-((1-isopropyl-1H-pyrazol-4-yl)amino)imidazo[1,2-a]pyridin-3-yl)ethynyl)-4-methyl-N-(4-((4-methyl-1,4-diazepin-1-yl)methyl)-3-(trifluoromethyl)phenyl)benzamide], the IC50 with Huh7 was 247 nM; with A375 (Homo sapiens, A-375, 72 h) it was 668 nM; in the assay with K562 (Homo sapiens, K562, 72 h) it was 19 nM; in the assay with MDA-MB-231 (Homo sapiens, MDA-MB-231, 72 h) it was 770 nM. Further, on T315I (Ba/F3), the GI50 was determined as 133 nM.

For the compound `CCn1cc(Nc2cccn3c(C#Cc4cc(C(=O)Nc5ccc(CN6CC[C@H](N(C)C)C6)c(C(F)(F)F)c5)ccc4C)cnc23)cn1` [Example 54, (S)—N-(4-((3-(dimethylamino)pyrrolidin-1-yl)methyl)-3-(trifluoromethyl)phenyl)-3-((8-((1-ethyl-1H-pyrazol-4-yl)amino)imidazo[1,2-a]pyridin-3-yl)ethynyl)-4-methylbenzamide], the IC50 is above 10 nM in the assay on RET (LC2/ad-CDC6); 454 nM with A375 (Homo sapiens, A-375, 72 h); below 1 nM with K562 (Homo sapiens, K562, 72 h); 388 nM in the assay with MDA-MB-231 (Homo sapiens, MDA-MB-231, 72 h). The GI50 at T315I (Ba/F3) was 30.9 nM.

Regarding `Cc1ccc(C(=O)Nc2ccc(CN3CCCN(C)CC3)c(C(F)(F)F)c2)cc1C#Cc1cnc2c(Nc3cnn(CCCN(C)C)c3)cccn12` [Example 39, 3-((8-((1-(3-(dimethylamino)propyl)-1H-pyrazol-4-yl)amino)imidazo[1,2-a]pyridin-3-yl)ethynyl)-4-methyl-N-(4-((4-methyl-1,4-diazepin-1-yl)methyl)-3-(trifluoromethyl)phenyl)benzamide], the half-inhibitory concentration (IC50) in the assay with Huh7 worked out at 457 nM; in the assay on A375 (Homo sapiens, A-375, 72 h), 1520 nM; with K562 (Homo sapiens, K562, 72 h), 43 nM; with MDA-MB-231 (Homo sapiens, MDA-MB-231, 72 h), 1460 nM. Moreover, at T315I (Ba/F3), the GI50 was determined as 238 nM.

Turning to `Cc1ccc(C(=O)Nc2ccc(CN3CCN(C)[C@@H](C)C3)c(C(F)(F)F)c2)cc1C#Cc1cnc2c(Nc3cnn(CCCN(C)C)c3)cccn12` [Example 49, (S)-3-((8-((1-(3-(dimethylamino)propyl)-1H-pyrazol-4-yl)amino)imidazo[1,2-a]pyridin-3-yl)ethynyl)-N-(4-((3,4-dimethylpiperazin-1-yl)methyl)-3-(trifluoromethyl)phenyl)-4-methylbenzamide], the IC50 is above 10 nM in the assay with RET (LC2/ad-CDC6); 1020 nM with A375 (Homo sapiens, A-375, 72 h); 5 nM in the assay on K562 (Homo sapiens, K562, 72 h); 513 nM in the assay with MDA-MB-231 (Homo sapiens, MDA-MB-231, 72 h). Also, the GI50 on T315I (Ba/F3) was 217 nM.
